Values after ≈ are worked out from the molar mass of the structure shown. “Also recorded” adds a separate entry of the source. Like-named read-outs stand apart in the source and are kept apart here.
Experiments:
mouse = settings: iv administration; cited from earlier work
platelet [1] = settings: cited from earlier work; for platelet activating / platelet aggregation action (in words): background
[2] = background, cited from earlier work
Sarcoma 180 cells = experiment: Antitumor action in ICR mice inoculated intraperitoneally with Sarcoma 180 cells (life-span prolongation, 60-day survivors); type: in vivo; settings: for responders at 0.33 mg: read-out: 60th day: No. of survived mice/No. of tested mice (converted); for response vs control in vivo at 0.33 mg: read-out: Life-span prolongation ratio (T/C %)
Description: The assay was carried out under the same conditions as Test Example 1-i.

MM46 cells = experiment: Antitumor action in C3H/He mice inoculated intraperitoneally with MM46 cells (life-span prolongation, 60-day survivors); type: in vivo; settings: for responders at 0.25 mg: 1440 h, read-out: 60th day: No. of survived mice/No. of tested mice (converted); for response vs control in vivo at 0.25 mg: read-out: Life-span prolongation ratio (T/C %)
Description: (i) C3H/He mice (a group consisting of five mice) were inoculated intraperitoneally with 1×10^4 MM46 cells per mouse, and each mouse was intraperitoneally given 0.25 mg of drug for consecutive 4 days, starting from the second day after the inoculation.
(ii) In the above test, each mouse was inoculated intraperitoneally with 1×10^5 MM46 cells and 0.25 mg of drug was given intraperitoneally to each mouse for consecutive 4 days, starting from the second day after the inoculation.
The assay was carried out under the same conditions as Test Example 2-i.

platelet [3] = experiment: Effect on platelet: platelet aggregation (PAF activity) in platelet rich plasma; type: cell-based, male rabbit; settings: Oryctolagus cuniculus, Table 5, rabbit PRP, 400,000 cells/1 μl, read-out: PAF activity EC50 (drug concentration causing 50% platelet aggregation)
Description: This PRP was further centrifuged at 3,000 r.p.m. for 15 minutes to obtain platelet poor plasma (PPP). By using this PPP, the PRP was diluted and so adjusted as to have a constant platelet concentration (400,000 cells/1 μl). […] Platelet aggregation was measured by using a platelet aggregometer (manufactured by Rika Denki Co. in Japan).

tumor = settings: background; cited from earlier work
[4] = tested on: human myelogenous leukemia cells HL-60; experiment: Multiplication-inhibiting effect against human myelogenous leukemia cells HL-60; type: cell-based; settings: Table 4, read-out: Multiplication inhibition against HL-60 (IC50)
Description: Shown in Table 4 is the multiplication-inhibiting effect (IC50) of the compound of the present invention against human myelogenous leukemia cells HL-60. The assay was conducted according to the method of R. Gallo et al.: Blood, Vol 54, 713 (1979).

[5] = tested on: PAF-induced platelet aggregation; experiment: Inhibition action against PAF in platelet aggregation (Washed PRP); type: cell-based, male rabbit; settings: Oryctolagus cuniculus
Description: Blood was collected from a male rabbit, using a syringe containing 3.15% of citric acid (at a ratio of 1 part to 9 parts of blood) as an anticoagulant and centrifuged at 1,000 r.p.m. at room temperature for 10 minutes to obtain platelet rich plasma (PRP). This PRP was further centrifuged at 1,400 r.p.m. for 15 minutes to obtain platelet pellet, which was then suspended in Ca^++ -free Tyrode (containing 0.25% of gelatin) to prepare Washed PRP. 250 μl of the Washed PRP was stirred at 37° C. for 2 minutes, and admixed with 25 μl of 0.2-0.5 mM Ca^++ solution, followed by stirring for another 30 seconds. Then, a test compound was added to the mixture to a concentration of 3×10^-5 M and after further stirring for 2 minutes, 3×10^-7 M of PAF was added to the mixture. Platelet aggregation was measured by using a platelet aggregometer (manufactured by Rika Denki Co. in Japan). The activity of the test compound was determined from an inhibition ratio for maximum transmission (i.e. maximum aggregation ratio) by PAF in the control PRP.
Inhibition activity against PAF in platelet aggregation was assayed under the same conditions as Test Example 5.

[6] = Sarcoma-180, 1440 h, Table 1, 0.33 mg/mouse ip, three times
[7] = Table 1, 1×10^5 Sarcoma 180 cells ip, 0.33 mg/mouse ip, three times (1 hour, 1 day, 2 days after inoculation), only mice surviving less than 60 days
[8] = Table 2, 1×10^4 MM46 cells, 0.25 mg/mouse ip, 4 days
[9] = Mus musculus, ip, Table 2, 1×10^4 MM46 cells ip, 0.25 mg/mouse ip for consecutive 4 days from second day, only mice surviving less than 60 days
[10] = Table 6, test compound 3×10^-5 M, PAF 3×10^-7 M, read-out: Inhibition ratio
[11] = Mus musculus, Sarcoma-180, ip, 1440 h, Table 7, same conditions as Test Example 1-i
[12] = Mus musculus, Sarcoma-180, ip, Table 7, same conditions as Test Example 1-i
[13] = Mus musculus, ip, Table 8, same conditions as Test Example 2-i
[14] = Table 10, same conditions as Test Example 5, read-out: Inhibition ratio

For `CCCCCCCCCCCCCCCCCCOCC(COP(=O)([O-])OCC[N+](C)(C)C)OC(C)=O` (stereo not drawn) [Compound (II)], the “fatal dose for a mouse” value (mouse) is given as “about 50 mg/kg”, the “platelet activating / platelet aggregation action (in words)” value (platelet [1]) is given as “strong platelet aggregation action” and the “side effects and toxicity (in words)” value ([2]; listed as PAF) is given as “neutrophil-activating, tissue-impairing, vessel-permeability enhancing, blood-pressure lowering, heart function inhibiting, bronchoconstrictor and other actions; also recorded: toxicity for warm-blooded animals is very high”.
With `CCCCCCCCCCCCCCCCCCOCC(COP(=O)([O-])OCC[N+](C)(C)C)OC` (stereo not drawn) [Compound (III), reference compound] the “life-span prolongation ratio compared with the control group (in words)” value (Sarcoma 180 cells; 1 mg/mouse, for its toxicity) was “smaller life-span prolongation ratio than the control group”, the responders at 0.33 mg (Sarcoma 180 cells; [6]) was 0% and the response vs control in vivo at 0.33 mg (Sarcoma 180 cells; [7]) was 162%. It also gave a responders at 0.25 mg (MM46 cells; [8]) of 0%, a response vs control in vivo at 0.25 mg (MM46 cells; [9]) of 155% and an EC50 (platelet [3]) of 30 µM. The “platelet activating / platelet aggregation action (in words)” value (platelet [1]) was “possess a platelet activating action”, the “antitumor action (in words)” value (tumor) was “exhibit an antitumor action” and the “side effects and toxicity (in words)” value [2] was “both blood-pressure lowering and topically irritating actions are observed; also recorded: high degree of its toxicity”.
In the case of `CCCCCCCCCCCCCCCCCCOCC(COP(=O)([O-])OCC[N+](C)(C)C)OC(=O)CCC` (stereo not drawn) [Compound (IV), reference compound], the responders at 0.33 mg (Sarcoma 180 cells; [6]) is listed as 0%, the response vs control in vivo at 0.33 mg (Sarcoma 180 cells; [7]) is listed as 109% and the “platelet activating action relative to that of PAF (II)” value (platelet [1]; Thrombosis Research, 30, 143 (1983)) is listed as “about 1/10”.
For `CCCCCCCCCCCCCCCCCCOCC(COP(=O)([O-])OCC[N+](C)(C)C)OC(=O)N(C)C` (stereo not drawn) [Compound (V)], the “platelet activating / platelet aggregation action (in words)” value (platelet [1]) is given as “remarkably strong platelet activating activity”.
With `CCCCCCCCCCCCCCCCCCOCC(COP(=O)([O-])OCCCCCCCCCC[N+](C)(C)C)OC(=O)CC(C)=O` (stereo not drawn) [Example 3, 2-(Acetoacetyloxy)-3-(octadecyloxy)propyl 10-trimethylammoniodecyl phosphate] the “life-span prolongation ratio (T/C %)” value (Sarcoma 180 cells; 1 mg/mouse, otherwise as Test Example 1-i) was 369%, the “number of survived mice on the 60th day” value (Sarcoma 180 cells; 1 mg/mouse, group of 5 mice) was 2 mice and the responders at 0.33 mg (Sarcoma 180 cells; [6]) was 40%. The response vs control in vivo at 0.33 mg (Sarcoma 180 cells; [7]) was 326%, the responders at 0.25 mg (MM46 cells; [8]) was 80% and the response vs control in vivo at 0.25 mg (MM46 cells; [9]) was 132%. For the same molecule, the response vs control in vivo at 0.25 mg (MM46 cells; Mus musculus, ip, Table 3, 1×10^5 MM46 cells ip, 0.25 mg/mouse ip for consecutive 4 days, only mice surviving less than 60 days) was 125%, the “60th day: No. of survived mice/No. of treated mice” value (MM46 cells; Table 3, 1×10^5 MM46 cells, 0.25 mg/mouse ip, 4 days) was 4/5 and the IC50 [4] was 1.5 µg/mL. The inhibition at 30 µM [5, 10] was 72%.
In the case of `CCCCCCCCCCCCCCCCCCC(=O)COCC(COP(=O)([O-])OCCCCCCCCCC[N+](C)(C)C)OC` (stereo not drawn) [Example 6, 2-Methoxy-3-(2-oxoeicocyloxy)propyl 10-trimethylammoniodecyl phosphate], the responders at 0.33 mg (Sarcoma 180 cells; [11]) is reported as 0%, the response vs control in vivo at 0.33 mg (Sarcoma 180 cells; [12]) is reported as 242% and the responders at 0.25 mg (MM46 cells; [13]) is reported as 80%. For the same molecule, the response vs control in vivo at 0.25 mg (MM46 cells; [13]) was 145%.
`CCCCCCCCCCCCCCCCCCOCC(COP(=O)([O-])OCCCCCCCCCC[N+](C)(C)C)OC(=O)NC` (stereo not drawn) [Example 8, 2-Methylcarbamoyloxy-3-octadecyloxypropyl 10-trimethylammoniodecyl phosphate] showed an inhibition at 30 µM [5, 14] of 100%.
`CCCCCCCCCCCCCCCCCCOCC(COP(=O)([O-])OCCCCCCCCCC[N+](C)(C)C)OC(=S)NC` (stereo not drawn) [Example 9, 2-Methylthiocarbamoyloxy-3-octadecyloxypropyl 10-trimethylammoniodecyl phosphate] showed a responders at 0.25 mg (MM46 cells; [13]) of 40%, a response vs control in vivo at 0.25 mg (MM46 cells; [13]) of 170% and an inhibition at 30 µM [5, 14] of 55%.
`CCCCCCCCCCCCCCCCCCOCC(COP(=O)([O-])OCCCCCCCCCC[N+](C)(C)C)OC` (stereo not drawn) [Example 10, 2-Methoxy-3-octadecyloxypropyl 10-trimethylammoniodecyl phosphate] gave a responders at 0.33 mg (Sarcoma 180 cells; [11]) of 0%, a response vs control in vivo at 0.33 mg (Sarcoma 180 cells; [12]) of 212% and a responders at 0.25 mg (MM46 cells; [13]) of 40%. It also gave a response vs control in vivo at 0.25 mg (MM46 cells; [13]) of 249% and an inhibition at 30 µM [5, 14] of 53%.
In the case of `CCCCCCCCCCCCCCCCCCNC(=O)OCC(COP(=O)([O-])OCCCCCCCCCC[N+](C)(C)C)OC` (stereo not drawn) [Example 11, 3-Octadecylcarbamoyloxy-2-methoxypropyl 10-trimethylammoniodecyl phosphate], the responders at 0.33 mg (Sarcoma 180 cells; [11]) is reported as 0%, the response vs control in vivo at 0.33 mg (Sarcoma 180 cells; [12]) is reported as 253% and the responders at 0.25 mg (MM46 cells; [13]) is reported as 40%. It also gave a response vs control in vivo at 0.25 mg (MM46 cells; [13]) of 186%.
With `CCCCCCCCCCCCCCCCCCOCC(COP(=O)([O-])OCCCCCCCCCC[N+](C)(C)C)OCC(C)=O` (stereo not drawn) [Example 18, 3-(Octadecyloxy)-2-(2-oxopropyloxy)propyl 10-trimethylammoniodecyl phosphate] the EC50 (platelet [3]) was > 100 µM and the inhibition at 30 µM [5, 10] was 100%.
`CCCCCCCCCCCCCCCCCCOCC(COP(=O)([O-])OCCCCCCCC[N+](C)(C)C)OC(=O)CC(C)=O` (stereo not drawn) [Example 29, 2-(Acetoacetoxy)-3-(octadecyloxy)propyl 8-trimethylammoniooctyl phosphate] gave an inhibition at 30 µM [5, 14] of 96%.
`COC(COCCCCCCCCCCCCC1CCCCC1)COP(=O)([O-])OCCCCCCCCCC[N+](C)(C)C` (stereo not drawn) [Example 33, 3-(12-Cyclohexyldodecyloxy)-2-methoxypropyl 10-trimethylammoniodecyl phosphate] showed a responders at 0.33 mg (Sarcoma 180 cells; [11]) of 0%, a response vs control in vivo at 0.33 mg (Sarcoma 180 cells; [12]) of 266% and an inhibition at 30 µM [5, 14] of 100%.
`COC(COCCCCCCCCCCCCCCC(C)C)COP(=O)([O-])OCCCCCCCCCC[N+](C)(C)C` (stereo not drawn) [Example 39, 2-Methoxy-3-(15-methylhexadecyloxy)propyl 10-trimethylammoniodecyl phosphate] gave a responders at 0.33 mg (Sarcoma 180 cells; [11]) of 0%, a response vs control in vivo at 0.33 mg (Sarcoma 180 cells; [12]) of 265% and an inhibition at 30 µM [5, 14] of 69%.
`CC(=O)CC(=O)OC(COCCCCCCCCCCCCCCC(C)C)COP(=O)([O-])OCCCCCCCCCC[N+](C)(C)C` (stereo not drawn) [Example 43, 2-(Acetoacetyloxy)-3-(15-methylhexadecyloxy)propyl 10-trimethylammoniodecylphosphate] gave a responders at 0.33 mg (Sarcoma 180 cells; [11]) of 40%, a response vs control in vivo at 0.33 mg (Sarcoma 180 cells; [12]) of 128% and a responders at 0.25 mg (MM46 cells; [13]) of 0%. For the same molecule, the response vs control in vivo at 0.25 mg (MM46 cells; [13]) was 232% and the inhibition at 30 µM [5, 14] was 100%.
Work on `CCCCCCCCCCCCCCCCCCOCC(COP(=O)([O-])OCCCCCCCC[N+](C)(C)C)OC(=O)NC` (stereo not drawn) [Example 44, 2-Methylcarbamoyloxy-3-octadecyloxypropyl 8-trimethylammoniooctyl phosphate] yielded an inhibition at 30 µM [5, 14] of 100%.
`CCCCCCCCCCCCCCCCCCOCC(COP(=O)([O-])OCCCCCCCCCC[N+](C)(C)C)OCC(=O)O` (stereo not drawn) [Example 46, 2-(Carboxymethyloxy)-3-(octadecyloxy)propyl 10-trimethylammoniodecyl phosphate] gave a responders at 0.33 mg (Sarcoma 180 cells; [11]) of 0%, a response vs control in vivo at 0.33 mg (Sarcoma 180 cells; [12]) of 335% and a responders at 0.25 mg (MM46 cells; [13]) of 20%. The response vs control in vivo at 0.25 mg (MM46 cells; [13]) was 287%.
With `CCCCCCCCCCCCCCCCCCOCC(COP(=O)([O-])OCC[N+](C)(C)C)OC(=O)CC(C)=O` (stereo not drawn) [Reference compound 1, reference compound] the IC50 [4] was 6.6 µg/mL (≈ 11.1 µM) and the inhibition at 30 µM [5, 10] was 0%.
Molecule `CCCCCCCCCCCCCCCCCCOCC(COP(=O)([O-])OCCC[N+](C)(C)C)OC(=O)CC(C)=O` (stereo not drawn) [Reference compound 2, reference compound] has an IC50 [4] of 11 µg/mL (≈ 18.1 µM) and an inhibition at 30 µM [5, 10] of 0%.
For `CCCCCCCCCCCCCCCCCCNC(=O)OCC(COP(=O)([O-])OCC[N+](C)(C)C)OC` (stereo not drawn) [VI, reference compound], the responders at 0.33 mg (Sarcoma 180 cells; [6]) is listed as 0%, the response vs control in vivo at 0.33 mg (Sarcoma 180 cells; [7]) is listed as 202% and the “antitumor action (in words)” value (tumor) is listed as “not sufficient”.

Reference: patent US4778912A, “Phospholipid derivatives” (priority 1985, dated 1988)
